Data as given in ChEMBL document CHEMBL3885861, “Open TG-GATES”.

Species on record: Rattus norvegicus
Test: Open TG-GATES - Regimen: Single
Format: toxicity, organism-based, Sprague-Dawley
Parameters: regimen Single, gender Male, age 6 weeks
Details: in vivo, po, 0 mg/kg, route gavage, dose level Control; for APTT / Bas / Eos / Fbg / Hb / Ht / Lym / MCH / MCHC / MCV / Mono / Neu / PT / Plat / RBC / Ret / WBC: tissue Blood; for KIDNEY_L / KIDNEY_R / KIDNEY_TOTAL: tissue Kidney; for LIVER: tissue Liver; for A/G / ALP / ALT / AST / BUN / CRE / Ca / Cl / DBIL / GLC / IP / K / LDH / Na / PL / RALB / TBIL / TC / TG / TP / gamma-GTP: tissue Plasma

In the case of O=C(N[C@H](CO)[C@H](O)c1ccc([N+](=O)[O-])cc1)C(Cl)Cl [CHLORAMPHENICOL], the TERMINAL_BW (3 h) is reported as 223.3 g, the APTT (3 h) is reported as 17.4 s and the Bas (3 h) is reported as 0%. For the same compound, the Eos (3 h) was 1%, the Fbg (3 h) was 266.4 mg/dL and the Hb (3 h) was 13.2 g/dL. For the same compound, the Ht (3 h) was 38.7%, the Lym (3 h) was 79.8% and the MCH (3 h) was 21.8 pg. For the same compound, the MCHC (3 h) was 34.2%, the MCV (3 h) was 63.8 fL and the Mono (3 h) was 3.8%. It also gave a Neu (3 h) of 15.2%, a PT (3 h) of 14.3 s and a Plat (3 h) of 115.3 x10_4/uL. The RBC (3 h) was 607 x10_4/ul, the Ret (3 h) was 8.3% and the WBC (3 h) was 80.9 x10_2/uL. It also gave a KIDNEY_L (3 h) of 0.9 g, a KIDNEY_R (3 h) of 0.9 g and a KIDNEY_TOTAL (3 h) of 1.8 g. For the same compound, the LIVER (3 h) was 10.1 g, the A/G (3 h) was 0.9 and the ALP (3 h) was 1566 IU/L. For the same compound, the ALT (3 h) was 41.4 IU/L, the AST (3 h) was 73.8 IU/L and the BUN (3 h) was 9.4 mg/dL. For the same compound, the CRE (3 h) was 0.2 mg/dL, the Ca (3 h) was 11.6 mg/dL and the Cl (3 h) was 105 meq/L. It also gave a DBIL (3 h) of 0.012 mg/dL, a GLC (3 h) of 184.2 mg/dL and an IP (3 h) of 8.6 mg/dL. It also gave a K (3 h) of 4.2 meq/L, an LDH (3 h) of 57.6 IU/L and a Na (3 h) of 139.8 meq/L. The PL (3 h) was 136.2 mg/dL, the RALB (3 h) was 2.5 g/dL and the TBIL (3 h) was 0.062 mg/dL. For the same compound, the TC (3 h) was 74.6 mg/dL, the TG (3 h) was 66.4 mg/dL and the TP (3 h) was 5.3 g/dL. The gamma-GTP (3 h) was 1.2 IU/L, the TERMINAL_BW (6 h) was 222.3 g and the APTT (6 h) was 17.1 s. The Bas (6 h) was 0%, the Eos (6 h) was 0.8% and the Fbg (6 h) was 262.8 mg/dL. The Hb (6 h) was 13.3 g/dL, the Ht (6 h) was 42.9% and the Lym (6 h) was 72.2%. The MCH (6 h) was 21.6 pg, the MCHC (6 h) was 30.9% and the MCV (6 h) was 70.1 fL. It also gave a Mono (6 h) of 2.6%, a Neu (6 h) of 24.2% and a PT (6 h) of 14.6 s. For the same compound, the Plat (6 h) was 109 x10_4/uL, the RBC (6 h) was 613.2 x10_4/ul and the Ret (6 h) was 8.2%. The WBC (6 h) was 60.2 x10_2/uL, the KIDNEY_L (6 h) was 0.9 g and the KIDNEY_R (6 h) was 0.9 g. The KIDNEY_TOTAL (6 h) was 1.8 g, the LIVER (6 h) was 9.4 g and the A/G (6 h) was 0.9. It also gave an ALP (6 h) of 1343.8 IU/L, an ALT (6 h) of 38.8 IU/L and an AST (6 h) of 71.2 IU/L. It also gave a BUN (6 h) of 8.8 mg/dL, a CRE (6 h) of 0.2 mg/dL and a Ca (6 h) of 11.6 mg/dL. It also gave a Cl (6 h) of 105.2 meq/L, a DBIL (6 h) of 0.014 mg/dL and a GLC (6 h) of 187.6 mg/dL. For the same compound, the IP (6 h) was 10.4 mg/dL, the K (6 h) was 4.2 meq/L and the LDH (6 h) was 62.8 IU/L. The Na (6 h) was 141.8 meq/L, the PL (6 h) was 136.2 mg/dL and the RALB (6 h) was 2.5 g/dL. The TBIL (6 h) was 0.064 mg/dL, the TC (6 h) was 73.6 mg/dL and the TG (6 h) was 72.2 mg/dL. It also gave a TP (6 h) of 5.5 g/dL, a gamma-GTP (6 h) of 1.4 IU/L and a TERMINAL_BW (9 h) of 222.7 g. The APTT (9 h) was 16.3 s, the Bas (9 h) was 0% and the Eos (9 h) was 1%. The Fbg (9 h) was 256.4 mg/dL, the Hb (9 h) was 13.5 g/dL and the Ht (9 h) was 42.9%. For the same compound, the Lym (9 h) was 71.2%, the MCH (9 h) was 21.5 pg and the MCHC (9 h) was 31.5%. The MCV (9 h) was 68.1 fL, the Mono (9 h) was 2.6% and the Neu (9 h) was 25%. The PT (9 h) was 14.5 s, the Plat (9 h) was 114.3 x10_4/uL and the RBC (9 h) was 630.2 x10_4/ul. For the same compound, the Ret (9 h) was 8.4%, the WBC (9 h) was 69.8 x10_2/uL and the KIDNEY_L (9 h) was 0.9 g. For the same compound, the KIDNEY_R (9 h) was 0.9 g, the KIDNEY_TOTAL (9 h) was 1.9 g and the LIVER (9 h) was 8.8 g. The A/G (9 h) was 0.9, the ALP (9 h) was 1165.4 IU/L and the ALT (9 h) was 36 IU/L. For the same compound, the AST (9 h) was 67.8 IU/L, the BUN (9 h) was 8.6 mg/dL and the CRE (9 h) was 0.2 mg/dL. The Ca (9 h) was 11.2 mg/dL, the Cl (9 h) was 105.4 meq/L and the DBIL (9 h) was 0.012 mg/dL. For the same compound, the GLC (9 h) was 192.6 mg/dL, the IP (9 h) was 10.4 mg/dL and the K (9 h) was 4.1 meq/L. It also gave an LDH (9 h) of 74.4 IU/L, a Na (9 h) of 140.6 meq/L and a PL (9 h) of 145.8 mg/dL. For the same compound, the RALB (9 h) was 2.5 g/dL, the TBIL (9 h) was 0.068 mg/dL and the TC (9 h) was 81.4 mg/dL. For the same compound, the TG (9 h) was 49.6 mg/dL, the TP (9 h) was 5.4 g/dL and the gamma-GTP (9 h) was 1 IU/L. For the same compound, the TERMINAL_BW (24 h) was 230.2 g, the APTT (24 h) was 16.1 s and the Bas (24 h) was 0%. For the same compound, the Eos (24 h) was 1%, the Fbg (24 h) was 264 mg/dL and the Hb (24 h) was 13 g/dL. The Ht (24 h) was 40.9%, the Lym (24 h) was 80.6% and the MCH (24 h) was 21.3 pg. The MCHC (24 h) was 31.9%, the MCV (24 h) was 66.6 fL and the Mono (24 h) was 2.8%. For the same compound, the Neu (24 h) was 15.2%, the PT (24 h) was 14.3 s and the Plat (24 h) was 120.8 x10_4/uL. It also gave an RBC (24 h) of 614.4 x10_4/ul, a Ret (24 h) of 7.6% and a WBC (24 h) of 87.8 x10_2/uL. It also gave a KIDNEY_L (24 h) of 1 g, a KIDNEY_R (24 h) of 1 g and a KIDNEY_TOTAL (24 h) of 2 g. It also gave an LIVER (24 h) of 11.2 g, an A/G (24 h) of 0.9 and an ALP (24 h) of 1650.8 IU/L. For the same compound, the ALT (24 h) was 48.2 IU/L, the AST (24 h) was 77 IU/L and the BUN (24 h) was 15.4 mg/dL. It also gave a CRE (24 h) of 0.2 mg/dL, a Ca (24 h) of 11.7 mg/dL and a Cl (24 h) of 103.6 meq/L. It also gave a DBIL (24 h) of 0.012 mg/dL, a GLC (24 h) of 191.6 mg/dL and an IP (24 h) of 8.8 mg/dL. It also gave a K (24 h) of 4.1 meq/L, an LDH (24 h) of 88.8 IU/L and a Na (24 h) of 141.2 meq/L. For the same compound, the PL (24 h) was 155.2 mg/dL, the RALB (24 h) was 2.6 g/dL and the TBIL (24 h) was 0.056 mg/dL. For the same compound, the TC (24 h) was 86.8 mg/dL, the TG (24 h) was 72.6 mg/dL and the TP (24 h) was 5.6 g/dL. It also gave a gamma-GTP (24 h) of 1.2 IU/L.
